Results taken from patent US8377969B2, “Compounds for use in the treatment of cancer” (PledPharma AB, priority 2007, dated 2013).

How the values were obtained:
[1] = Rocklage et al., 1989; cited from earlier work
[2] = from the reported stability constants
[3] = Rocklage et al., 1989; cited from earlier work; remark: listed apart in the source
[4] = Rocklage et al., 1989; cited from earlier work; remark: listed apart in the source
[5] = tested on: normal retinal epithelia telomerase immortalized cells (hTERT-RPE1); test: Fluorometric microculture cytotoxicity assay (FMCA), hTERT-RPE1; assay type: cell-based; conditions: for cytostatic effect (alone): FMCA, 72 h
[6] = cited from earlier work
[7] = tested on: human ileocecal colorectal adenocarcinoma cells (HCT-8); test: Fluorometric microculture cytotoxicity assay (FMCA), HCT-8; assay type: cell-based; conditions: HCT-8 cells; for cytostatic effect (alone): FMCA, 72 h
Method: (§1) HCT-8 cells were grown in RPMI 1640 medium with sodium pyruvate (1 mM) and 10% horse serum. SW620 were grown in ATCC-formulated Leibovitz's L-15 Medium with 10% fetal bovine serum. Cells were kept at 37° C. in a humidified atmosphere containing 5% carbon dioxide. The cells were harvested in the log-phase for experimental use. The fluorometric microculture cytotoxicity assay (FMCA) was used to investigate the cytostatic activity of oxaliplatin, MnDPDP or DPDP and combinations thereof. FMCA is based on measurement of fluorescence generated from hydrolysis of fluorescein diacetate (FDA) to fluorescein by cells with intact plasma membranes. Briefly, 96-well microtiter plates were freshly prepared with drug solutions in triplicates at 10 times the desired drug concentrations. Cell suspensions were seeded into the drug-prepared plates with 20 000 cells per well and plates were then incubated for 72 h. After incubation, the plates were washed, FDA was added, and after 50 min of incubation the fluorescence generated (excitation 480 nm) was measured at 538 nm in a fluorometer (Fluorostar Optima, BMG Technologies). The fluorescence is proportional to the number of cells with intact plasma membrane present in the well.

infarct size = conditions: pigs; MnPLED 3 μmol/kg; cited from earlier work
[8] = Fenton assay (competition with iron, H2DCF oxidation); conditions: FIG. 4
Method: By permitting the chelator DPDP, the metal complexes MnDPDP and MnPLED to compete with iron in the Fenton assay, the stability of MnDPDP and MnPLED was compared.
H2O2 (100 μM) was added to initiate the production of hydroxyl radicals (HO.). The latter oxidize H2DCF (non-fluorescent 2′,7′-dichlorodihydrofluorescein; 5 μM) to fluorescent DCF (2′,7′-dichlorofluorescein). H2DCF was obtained by hydrolysing its acetate ester (H2DCF-DA)]. […] DPDP, MnDPDP and MnPLED at various concentrations were assayed for their iron-chelating capacity. Fluorescence was measured in an FL600 Microplate Fluorescence reader (Bio-Tek, Winooski, Vt., U.S.A.) at ex 485 nm and em 530 nm.

[9] = tested on: human adenocarcinoma cells (SW620); test: Fluorometric microculture cytotoxicity assay (FMCA), SW620; assay type: cell-based; conditions: for cytostatic effect (alone): FMCA, 72 h
Method: as §1

[10] = pigs, ten minutes after injection; cited from earlier work
[11] = tested on: human colon cancer SW480 cells; conditions: 24 h, MTT
Method: (§2) The viability of cells was measured using the MTT assay. Briefly, 20,000 SW480 or J774 cells were seeded per well on a 96-well plate and grown over night in Dulbecco's Modified Eagle's Medium (DMEM) containing 10% fetal bovine serum, 2 mM L-glutamine, 100 Ul/ml penicillin and 100 μg/ml streptomycin at 37° C. in humidified air with 5% CO2. Cells were then exposed for 24 h to 50 μM MnDPDP, 50 μM DPDP or 10 μM oxaliplatin at 37° C. The effect of combining 50 μM DPDP with 10 μM oxaliplatin on viability was also tested. The viability of the cells was then assessed by adding 5 mg/ml methylthiazoletetrazolium (MTT) to a final concentration of 0.5 mg/ml and incubating cells for a further 4 h at 37° C. The blue formazan that is formed by mitochondrial dehydrogenases of viable cells was then dissolved over night at 37° C. by adding 10% SDS and 10 mM HCl to a final concentration of 5% SDS and 5 mM HCl. Finally, the absorbance of the solution was read at 570 nm with a reference at 670 nm in a microplate reader Spectramax 340 (Molecular Devices, Sunnyvale, Calif., USA) connected to an Apple Macintosh computer running the program Softmax Pro V1.2.0 (Molecular Devices, Sunnyvale, Calif., USA).

[12] = tested on: murine lymphoma J774 cells; conditions: 24 h, MTT
Method: as §2

Question: For `Cc1ncc(CO)c(CN(CCN(CC(=O)O)Cc2c(CO)cnc(C)c2O)CC(=O)O)c1O` [PLED, N,N′-dipyridoxyl ethylenediamine-N,N′-diacetic acid], which “stability constant with Fe^3+ (ferric iron)” value [1] is on record?
Answer: 36.88 logK

Question: What about the “how much more readily Mn^2+ dissociates than Zn^2+” value [2] of the same compound?
Answer: about 1000 times

Question: What about the “stability constant with Zn^2+” value [3] of the same compound?
Answer: 16.68 logK

Question: What about the “stability constant with Mn^2+” value [4] of the same compound?
Answer: 12.56 logK

Question: With MnDPDP as the compound, how does the “cytostatic effect (alone)” value [5] read?
Answer: Neither MnDPDP nor DPDP demonstrated any cytostatic effect

Question: What about the administered manganese released ([6]; humans, intravenous injection) of the same compound?
Answer: about 70%

Question: What about the “injected manganese that stays bound to the chelator” value ([6]; man, for a considerable amount of time) of the same compound?
Answer: about 30%

Question: And the “injected MnDPDP transformed into MnPLED” value ([6]; man, shortly after intravenous injection)?
Answer: about 30%

Question: And the “cytostatic effect (alone)” value [7]?
Answer: Neither MnDPDP nor DPDP demonstrated any cytostatic effect

Question: And the infarct size (infarct size)?
Answer: did not reduce the infarct size

Question: What about the iron-chelating capacity ([8]; Fenton assay) of the same compound?
Answer: significantly higher than that of MnPLED

Question: And the “cytostatic effect (alone)” value [9]?
Answer: Neither MnDPDP nor DPDP demonstrated any cytostatic effect

Question: What about the “replacement of manganese with zinc” value [10] of the same compound?
Answer: all manganese has been replaced with zinc

Question: With `O=C1[O][Pt]2([NH][C@@H]3CCCC[C@H]3[NH]2)[O]C1=O` [Oxaliplatin, oxaliplatin] as the compound, how does the “cytostatic effect (alone)” value [5] read?
Answer: only a slight effect at its highest concentration

Question: And the “cytostatic effect (alone)” value [7]?
Answer: concentrations-dependent cytostatic effect

Question: And the “cytostatic effect (alone)” value [9]?
Answer: concentrations-dependent cytostatic effect

Question: For `Cc1ncc(COP(=O)(O)O)c(CN(CCN(CC(=O)O)Cc2c(COP(=O)(O)O)cnc(C)c2O)CC(=O)O)c1O` [DPDP, N,N′-bis-(pyridoxal-5-phosphate)-ethylenediamine-N,N′-diacetic acid], which “potentiation of the cytostatic effects of oxaliplatin” value (from here on “potentiation”) ([5]; 100 μM with 8 μM oxaliplatin, FMCA 72 h, FIG. 3D) is on record?
Answer: but not in normal cells

Question: And the “cytostatic effect (alone)” value [5]?
Answer: Neither MnDPDP nor DPDP demonstrated any cytostatic effect

Question: And the “how much more readily Mn^2+ dissociates than Zn^2+” value [2]?
Answer: about 1000 times

Question: And the “potentiation” value ([7]; 100 μM with 8 μM oxaliplatin, FMCA 72 h, FIG. 3C)?
Answer: significantly (unpaired t-test) potentiated

Question: And the “cytostatic effect (alone)” value [7]?
Answer: Neither MnDPDP nor DPDP demonstrated any cytostatic effect

Question: And the “cytostatic activity in combination with oxaliplatin versus oxaliplatin alone” value ([11]; 50 μM DPDP + 10 μM oxaliplatin)?
Answer: tendency, although not statistically significant (p<0.07), that DPDP in combination with oxaliplatin was more potent than oxaliplatin alone

Question: And the cytostatic activity ([11]; 50 μM, unpaired t-test, FIG. 1)?
Answer: statistically significant more efficacious than that of 50 μM MnDPDP

Question: And the “cytostatic activity in combination with oxaliplatin versus oxaliplatin alone” value ([12]; 50 μM DPDP + 10 μM oxaliplatin)?
Answer: significantly more efficacious than oxaliplatin alone

Question: And the cytostatic activity ([12]; 50 μM, FIG. 2)?
Answer: significantly more efficacious to kill the lymphoma cells than MnDPDP

Question: What about the “inhibition of the Fenton reaction” value ([8]; 10 μM ferric iron, 100 μM cysteine, 100 μM H2O2) of the same compound?
Answer: inhibited the Fenton reaction in a dose-dependent manner

Question: And the “concentration at which inhibition of the Fenton reaction started” value ([8]; 10 μM ferric iron)?
Answer: 0.1 µM

Question: And the “concentration at which inhibition of the Fenton reaction was complete” value ([8]; 10 μM ferric iron)?
Answer: 10 µM

Question: And the “potentiation” value ([9]; 100 μM with 8 μM oxaliplatin, FMCA 72 h, FIG. 3B)?
Answer: significantly (unpaired t-test) potentiated

Question: What about the “cytostatic effect (alone)” value [9] of the same compound?
Answer: Neither MnDPDP nor DPDP demonstrated any cytostatic effect
